According to patent US4219657A, “Dibenzothiophenes” (Hoffmann-La Roche Inc., priority 1977, dated 1980):

Key:
[1] = test system: Albino rats of Hart Strain; experiment: anti-inflammatory activity, volume of edema after Mycobacterium butyricum adjuvant injected into the right hind foot; assay type: in vivo; conditions: Rattus norvegicus, po, dosage of 0.03 gm. p.o., treated daily for 5 consecutive days, edema 96 hours after adjuvant, read-out: ED30 (dose required to produce a 30% reduction in edema)
Description: The test animals are given 10 mls. of vehicle^1, which contains the test compound per kg. of body weight. The animals are treated daily for 5 consecutive days. Three hours after the first treatment, 0.05 ml. of an 0.5% suspension of heat killed dessiccated Mycobacterium butyricum in U.S.P. olive oil, which has been steam sterilized for 30 minutes, is injected into the right hind foot of each rat. The paw volume is measured immediately after the injection of the adjuvant and again 96 hours later. The difference is recorded as volume of edema. The paw volume is measured by immersion of the paw into a column of mercury to an ink mark exactly at the level of the lateral malleolus. Percent inhibition is calculated by dividing the average control edema minus the average treatment edema by the average control edema times 100. The percent inhibition is plotted against dose on semi-logarithmic probability paper and the dose required to produce a 30% reduction in edema is estimated therefrom and is expressed as ED30.
^1 Hilgar, A. G. and Hummel, D. J.: Endocrine Bioassay Data. No. 1, p. 15, August 1964 (Cancer Chemotherapy National Service Center, N.I.H.)

mice = experiment: analgesic activity, reaction time of mice on a hot plate; assay type: in vivo; conditions: Mus musculus; male mice; oral; hot plate 55±0.5° C.; combined reaction time average at 30, 60 and 90 minutes
Description: The method determines the reaction time of mice dropped onto a hot plate maintained at 55±0.5° C. Six groups of male mice (5 mice/group) weighing between 20-30 grams are utilized. The initial reaction time of these mice is determined once, and the reaction time of each group is then averaged. The mice are then administered the vehicle and/or the compound to be tested by the oral, intraperitoneal or subcutaneous route. The average reaction time of each group is determined again at 30, 60 and 90 minutes after compound administration and is compared to controls. Reaction time is recorded as percent changes from control. All groups are averaged before and after treatment. A combined reaction time average (recorded as percent change of reaction time threshhold from controls) for all three periods is plotted against does on graph paper, and a curve is drawn. The ED50 is read from this curve.

SMILES: O=C(O)Cc1ccc2c(c1)sc1ccc(Cl)cc12 [8-chloro-dibenzothiophene-3-acetic acid]
- ED30 [1]: 1.8 mg/kg/day
- ED50 (mice): 120 mg/kg
